Laboratory results reported in US20130115256A1, “METHODS FOR TREATING OR PREVENTING VASCULAR GRAFT FAILURE” (priority 2010, published 2013).

Experiments:
[1] = tested on: immortalized human pleural mesothelial cells (ATCC CRL-9444); assay: TNF-α-induced IL-6 expression in mesothelial cells (ELISA); assay type: cell-based
Text: In order to examine the efficacy of MMI-0100 ([…]; SEQ ID NO: 1) in inhibiting the production of inflammatory cytokines, an inflammatory response was triggered in vitro by applying TNF-α to immortalized human pleural mesothelial cells (ATCC CRL-9444). A mesothelial cell is a cell type that forms a monolayer of specialized pavement-like cells (mesothelium) that lines the body's abdominal cavities and internal organs. The primary function of this layer, the mesothelium, is to provide a slippery, non-adhesive, and protective surface. Mesothelial cells also are involved in transport of fluid and cells across the peritoneal (abdominal) cavities, antigen presentation, inflammation, tissue repair, coagulation, and tumor cell adhesion. It is well known that mesothelial cells play important role in the peritoneal inflammatory response. In response to bacterial products and macrophage-derived inflammatory cytokines (e.g., TNF-α), mesothelial cells produce Interleukin-1 (IL-1), Interleukin-6 (IL-6), and Interleukin-8 (IL-8), thus amplifying the inflammatory signals and recruiting leukocytes into the infected abdominal cavity.
Expression of inflammatory cytokines was induced by applying 1 or 10 ng/ml of TNF-α to cultured mesothelial cells. Briefly, immortalized human pleural mesothelial cells (ATCC CRL-9444) were grown in Medium199 with Earle's BSS, 0.75 mM L-glutamine (Mediatech Inc., Manassas, Va.), 1.25 g/l sodium bicarbonate (Sigma), 3.3 nM epidermal growth factor (EGF) (MBL International, Woburn, Mass.), 40 nM hydrocortisone (Sigma), 870 nM insulin (MBL International), 20 mM HEPES (Sigma), trace elements mixture B (Mediatech Inc., Waltham, Mass.), 10% fetal bovine serum (FBS) (Hyclone), and 1% penicillin/streptomycin (Mediatech Inc., Waltham, Mass.). […] Human mesothelial cells were treated with two different concentrations (1 and 10 ng/mL) of TNF-α for 2, 6, 12, and 24 hours (data not shown). […] Without TNF-α stimulation, mesothelial cells made negligible amounts of IL-6. […] In subsequent experiments designed to determine whether the MMI-0100 peptide ([…]; SEQ ID NO: 1) could reduce TNF-α induced IL-6 expression, both 1 and 10 ng/mL of TNF-α were selected as stimuli. 10 ng/mL of TNF-α is regarded as more physiologically relevant for mesothelial cells.
Prior to cytokine and/or inhibitor treatment, cells were allowed to acclimate in serum-free media consisting of only Medium 199 with Earle's BSS, 0.75 mM L-glutamine, 1.25 g/l sodium bicarbonate, 20 mM HEPES, trace elements mixture B (Mediatech Inc., Waltham, Mass.), and 1% penicillin/streptomycin (Mediatech Inc., Waltham, Mass.) for 24 hours. After the adapting period, cytokines (TNF-α and IL-1β) with or without MMI-0100 peptide or Rottlerin (Tocris Bioscience, Ellisville, Mo.; IC50=5 μM) were added to the media in order to compare the efficacy of MMI-0100 ([…]; SEQ ID NO: 1) with that of Rottlerin. Specifically, serum-starved mesothelial cells were treated with two different concentrations (1000 μM or 3000 μM) of MMI-0100 ([…] (SEQ ID NO: 1)) at three different time points (6 hours, 12 hours, and 24 hours) using two different concentrations of TNF-α (1 ng/ml or 10 ng/ml) or using 1 ng/ml of IL-1β. Average concentration of IL-6 (pg/ml per 10^5 cells) at each time was determined by cytokine-specific ELISA.

[2] = tested on: JNK; assay: JNK radiometric kinase assay; assay type: biochemical; settings: MMI-0100 100 μM; remaining kinase activity
Text: A commercial radiometric assay service was used to test the specificity and potency of MMI-0100 ([…]; SEQ ID NO: 1) by measuring its half maximal inhibitory concentrations (IC50). This quantitative assay measures how much MK2 inhibitor (MMI-0100; […] (SEQ ID NO: 1)) is needed to inhibit 50% of a given biological process or component of a process (i.e., an enzyme, cell, or cell receptor). Specifically, in these assays, a positively charged substrate is phosphorylated with a radiolabeled phosphate group from an ATP if the kinase is not inhibited by an inhibitor peptide. The positively charged substrate then is attracted to a negatively charged filter membrane, quantified with a scintillation counter, and compared to a 100% activity control. ATP concentrations within 15 μM of the apparent Km for ATP were chosen since an ATP concentration near the Km may allow for the kinases to have the same relative amount of phosphorylation activity. […]
For the JNK (c-Jun N-terminal Kinase) radiometric assay, 5-10 mU of JNK was incubated with 50 mM Tris pH 7.5, 0.1 mM EGTA, 0.1% b-mercaptoethanol, 3 μM ATF2 (a substrate for JNK), 10 mM MgAcetate, and 10 μM of [y-^33P-ATP] in the final reaction volume of 25 μl. […] The washed P30 filtermat was dried and its radioactivity was measured by scintillation counter.
IC50 values for inhibitor peptides were determined using Millipore's IC50 Profiler Express service. […]

Question: For YARAAARQARAKALARQLGVAA [MMI-0100], which IL-6 expression ([1]; 1 ng/mL TNF-α, MMI-0100 1000 μM or 3000 μM) is on record?
Answer: Its IL-6 expression is “reduced IL-6 expression to the levels at or below the untreated baseline”.

Question: What about the IL-6 expression ([1]; 10 ng/mL TNF-α, 3000 μM MMI-0100, every time point (6, 12, 24 hours)) of the same sequence?
Answer: Its IL-6 expression is “reduced IL-6 expression to the levels of the untreated baseline”.

Question: What about the IL-6 expression ([1]; 10 ng/mL TNF-α, MMI-0100) of the same sequence?
Answer: Its IL-6 expression is “still effective”.

Question: What about the “Percent Activity, JNK” value [2] of the same sequence?
Answer: Its value is 92%.
